Patent US12122762B2, “Crystal form a of NHE3 inhibitor, preparation method therefor and application thereof” (SHENZHEN RENTAI PHARMATECH LTD., priority 2019, dated 2024)

Assays:
Type in all cases: physicochemical
[1] = Hygroscopicity study by dynamic vapor sorption (DVS); conditions: 25° C.
Procedure: • Model: BRUKER D8 DISCOVER (BRUKER, Germany) • Method: Cu target Ka, voltage: 40 KV, current: 40 mA, test angle: 3-45°, scanning step: 0.02, exposure time: 0.2 S, slit width of light pipe: 1 mm, slit width of detector: 2.7 mm. X-Ray Single Crystal Diffractometer SXRD • Model: BRUKER D8 QUEST (BRUKER, Germany) • Method: Cu target, voltage: 40 KV, current: 30 mA Differential Scanning Calorimeter DSC • Model: TA 250 (TA Instruments, US) • Method: heating at a rate of 10° C./min. Thermal Gravimetric Analysis TGA • Model: TA 550 (TA Instruments, US); • Method: heating at a rate of 10° C./min. Dynamic Vapor Sorption DVS • Model: DVS intrinsic (SMS, British); • Method: 25° C., relative humidity is stepped up at a rate of 10% per step, and the judgment standard is change in moisture content is <0.002% over a 10-minute period. Light Incubator • Model: MGC-100 (Shanghai Yiheng Scientific Instrument Co., Ltd.) Ultrasound Equipment • Model: KQ-3200 (Shanghai Alloy Ultrasonic Equipment Co., Ltd.) Programmable Temperature and Humidity Chamber for Drug Stability • Model: CMA-100C (Shanghai Puhan Precision Equipment Co., Ltd.) […]

[2] = High-temperature stability (60° C.), content by HPLC peak area normalization
Procedure: (§1) Follow tests are performed for the amorphous bulk pharmaceutical chemical of embodiment 1 and the crystal form A prepared in embodiment 2: • (1) Light stability: the test sample is placed in an environment having a temperature of 25° C. and a light condition of 4500 Lux for 5 days and 10 days, respectively, to test the stability of the crystal form. Samples are collected at the same point at 5th and 10th day to measure content by HPLC peak area normalization method. […] Samples are collected at the same point at 5th and 10th day to measure content by HPLC peak area normalization method. […] Samples are collected at the same point at 5th and 10th day to measure content by HPLC peak area normalization method.

[3] = Light stability (25° C., 4500 Lux), content by HPLC peak area normalization
Procedure: as §1

[4] = High-humidity stability (75% RH, 40° C.), content by HPLC peak area normalization
Procedure: as §1

[5] = Hygroscopicity of compound of formula (I) prepared according to CN103819403B; conditions: within 10 min under a humidity of RH 45%
Text: The inventors of the present invention prepared the compound of formula (I) according to the preparation method as described in CN103819403B, and carried out analysis. […] Especially, the prepared compound of formula (I) was found easy to decompose in environment of high temperature or high humidity or under strong lights, causing rapid decrease in the content of active ingredients. […] Therefore, a strict management would be required during use of the compound of formula (I), rendering the compound unsuitable for use as a bulk pharmaceutical chemical.

| Structure (SMILES) | weight increase due to moisture absorption ([1]; RH 0 to RH 90%, RH 10% per step, 10 min per step) [%] | Purity (%) after high-temperature stability test ([2]; 5 days) [%] | Purity (%) after high-temperature stability test ([2]; 10 days) [%] | Purity (%) after light stability test ([3]; 5 days) [%] | Purity (%) after light stability test ([3]; 10 days) [%] | Purity (%) after high-humidity stability test ([4]; 5 days) [%] | Purity (%) after high-humidity stability test ([4]; 10 days) [%] | weight increase because of hygroscopicity [5] | weight change in each step of 10 min ([1]; each RH 10% step of 10 min) |
| --- | --- | --- | --- | --- | --- | --- | --- | --- | --- |
| CN1Cc2c(Cl)cc(Cl)cc2[C@@H](c2cccc(S(=O)(=O)NCCOCCOCCNC(=O)NCCCCNC(=O)NCCOCCOCCNS(=O)(=O)c3cccc([C@@H]4CN(C)Cc5c(Cl)cc(Cl)cc54)c3)c2)C1 [amorphous bulk pharmaceutical chemical] | 7 | 61.62 | 58.98 | 72.54 | 71.99 | 81.63 | 79.78 | – | – |
| CN1Cc2c(Cl)cc(Cl)cc2[C@@H](c2cccc(S(=O)(=O)NCCOCCOCCNC(=O)NCCCCNC(=O)NCCOCCOCCNS(=O)(=O)c3cccc([C@@H]4CN(C)Cc5c(Cl)cc(Cl)cc54)c3)c2)C1 [compound of formula (I)] | – | – | – | – | – | – | – | up to 2% | – |
| CN1Cc2c(Cl)cc(Cl)cc2[C@@H](c2cccc(S(=O)(=O)NCCOCCOCCNC(=O)NCCCCNC(=O)NCCOCCOCCNS(=O)(=O)c3cccc([C@@H]4CN(C)Cc5c(Cl)cc(Cl)cc54)c3)c2)C1 [crystal form A] | – | 98.64 | 98.72 | 91.78 | 89.07 | 98.52 | 98.56 | – | less than 0.02% |
